In brackets after ≈: the same amount, converted by molar mass. Where a SMILES comes first, the peptide text is derived from it. [ ]: non-standard residue; d: D form. The star is where a group is joined. Orn(α-tetramethylguanidino) = CN(C)C(=N[C@@H](CCCN)C(=O)*)N(C)C; Hyp = O=C(O)[C@@H]1C[C@@H](O)CN1; Cha = N[C@@H](CC1CCCCC1)C(=O)O; Cit = NC(=O)NCCC[C@H](N)C(=O)O; Tle = CC(C)(C)[C@H](N)C(=O)O; Ac6c = NC1(C(=O)O)CCCCC1; Orn = NCCC[C@H](N)C(=O)O; βAla = NCCC(=O)O
Columns and labels:
E. coli BL 21 AI = test: Growth inhibition assay (MIC); type: cell-based, Escherichia coli; settings: 1% TSB, 37° C., 20 hrs
Method: (§1) The minimal inhibition concentrations (MIC) of the apidaecin-derived peptides and peptide-derivatives were determined by a growth inhibition assay using a serial peptide dilution in sterilized round-bottom 96-well plates (polystyrene, U-bottom, Greiner Bio-One GmbH) with a final volume of 100 μL per well. The bacteria, e.g., E. coli BL21 A1, were grown in nutrient broth (NB, Carl Roth GmbH+Co. KG, Karlsruhe, Germany) at 37° C. over night. To each well of the 96-well plate, 50 μL of the overnight culture adjusted to 5×10^6 CFU/mL in 1% TSB were added. Lyophilized peptides and peptidomimetics were dissolved in 1% TSB (tryptic soy broth) or water to give a final concentration of 250 μg/mL. Fifty μL of the peptide or peptidomimetics solution were added to the first well of a row on the plate and mixed. Fifty μL of the first well containing the peptide solution were transferred to the second well, mixed and again 50 μL transferred to the next well and so on. Thereby, a two-fold dilution series was obtained starting at 250 μg/mL in the first well down to 120 ng/mL in the 12th well of a row giving a final peptide or peptidomimetics concentration from 125 μg/mL (well 1) to 60 ng/mL (well 12). Plates were incubated at 37° C. for 20 hrs. The absorbance was measured at 595 nm using a TECAN micro plate spectrophotometer (Tecan, Germany). All peptides and peptidomimetics were measured in triplicates. Sterilized water was used as a negative control.
(§2) The bacteria strains were tested: • Eschericha coli 1103, 10233, BL 21 AI, DC 2, • Klebsiella pneumoniae 681, • Micrococcus luteus ATCC 10240, • Mycobacterium vaccae • Bactillus subtillis 347.

M. luteus ATCC 10240 = type: cell-based, Micrococcus luteus; settings: ATCC 10240, 20 h
Method: as §1, §2

| SMILES | MIC E. coli BL 21 AI (E. coli BL 21 AI) [µg/mL] | MIC M. luteus ATCC 10240 (M. luteus ATCC 10240) [µg/mL] |
| --- | --- | --- |
| CC[C@H](C)[C@H](NC(=O)[C@H](CCCNC(=N)N)NC(=O)[C@@H]1CCCN1C(=O)[C@H](Cc1c[nH]cn1)NC(=O)[C@@H]1CCCN1C(=O)[C@@H]1CCCN1C(=O)[C@H](CCCNC(=N)N)NC(=O)[C@@H]1CCCN1C(=O)[C@H](CCC(N)=O)NC(=O)[C@@H]1CCCN1C(=O)[C@@H](NC(=O)[C@H](Cc1ccc(O)cc1)NC(=O)[C@@H](NC(=O)[C@@H]1CCCN1C(=O)[C@H](CCCNC(=N)N)NC(=O)[C@H](CC(N)=O)NC(=O)[C@H](CC(N)=O)NC(=O)[C@@H](N)CCCN)C(C)C)[C@@H](C)CC)C(N)=O [compound 62] (H-[Orn]NNRPVYIPQPRPPHPRI-NH2) | 1.95 (≈ 0.901 µM) | 7.81 (≈ 3.61 µM) |
| CC[C@H](C)[C@H](NC(=O)[C@H](CCCNC(=N)N)NC(=O)[C@@H]1CCCN1C(=O)[C@H](Cc1c[nH]cn1)NC(=O)[C@@H]1CCCN1C(=O)[C@@H]1CCCN1C(=O)[C@H](CCCNC(=N)N)NC(=O)[C@@H]1CCCN1C(=O)[C@H](CCC(N)=O)NC(=O)[C@@H]1CCCN1C(=O)[C@@H](NC(=O)[C@H](Cc1ccc(O)cc1)NC(=O)[C@@H](NC(=O)[C@@H]1CCCN1C(=O)[C@H](CCCNC(=N)N)NC(=O)[C@H](CC(N)=O)NC(=O)[C@H](CC(N)=O)NC(=O)[C@H](CCCN)NC(C)=O)C(C)C)[C@@H](C)CC)C(N)=O [compound 63] (Ac-[Orn]NNRPVYIPQPRPPHPRI-NH2) | 3.91 (≈ 1.77 µM) | 3.91 (≈ 1.77 µM) |
| CC[C@H](C)[C@H](NC(=O)[C@H](Cc1ccc(O)cc1)NC(=O)[C@@H](NC(=O)[C@@H]1CCCN1C(=O)[C@H](CCCNC(=N)N)NC(=O)[C@H](CC(N)=O)NC(=O)[C@H](CC(N)=O)NC(=O)[C@H](CCCN)NC(C)=O)C(C)C)C(=O)N1CCC[C@H]1C(=O)N[C@@H](CCC(N)=O)C(=O)N1CCC[C@H]1C(=O)N[C@@H](CCCNC(=N)N)C(=O)N1CCC[C@H]1C(=O)N1CCC[C@H]1C(=O)N[C@@H](Cc1c[nH]cn1)C(=O)N1CCC[C@H]1C(=O)N[C@@H](CCCNC(=N)N)C(=O)N[C@H](CC(C)C)C(N)=O [compound 72] (Ac-[Orn]NNRPVYIPQPRPPHPR[dL]-NH2) | >125 | 7.81 (≈ 3.54 µM) |
| CC[C@H](C)[C@H](NC(=O)[C@H](Cc1ccc(O)cc1)NC(=O)[C@@H](NC(=O)[C@@H]1CCCN1C(=O)[C@H](CCCNC(=N)N)NC(=O)[C@H](CC(N)=O)NC(=O)[C@H](CC(N)=O)NC(=O)[C@H](CCCN)NC(C)=O)C(C)C)C(=O)N1CCC[C@H]1C(=O)N[C@@H](CCC(N)=O)C(=O)N1CCC[C@H]1C(=O)N[C@@H](CCCNC(=N)N)C(=O)N1CCC[C@H]1C(=O)N1CCC[C@H]1C(=O)N[C@@H](Cc1c[nH]cn1)C(=O)N1CCC[C@H]1C(=O)N[C@@H](CCCNC(=N)N)C(=O)N[C@H](C(N)=O)C(C)(C)C [compound 73] (Ac-[Orn]NNRPVYIPQPRPPHPR[Tle]-NH2) | 62.5 (≈ 28.3 µM) | 7.81 (≈ 3.54 µM) |
| CC[C@H](C)[C@H](NC(=O)[C@H](Cc1ccc(O)cc1)NC(=O)[C@@H](NC(=O)[C@@H]1CCCN1C(=O)[C@H](CCCNC(=N)N)NC(=O)[C@H](CC(N)=O)NC(=O)[C@H](CC(N)=O)NC(=O)[C@H](CCCN)NC(C)=O)C(C)C)C(=O)N1CCC[C@H]1C(=O)N[C@@H](CCC(N)=O)C(=O)N1CCC[C@H]1C(=O)N[C@@H](CCCNC(=N)N)C(=O)N1CCC[C@H]1C(=O)N1CCC[C@H]1C(=O)N[C@@H](Cc1c[nH]cn1)C(=O)N1CCC[C@H]1C(=O)N[C@@H](CCCNC(=N)N)C(=O)NCCC(N)=O [compound 74] (Ac-[Orn]NNRPVYIPQPRPPHPR[βAla]-NH2) | >125 | 7.81 (≈ 3.61 µM) |
| CC[C@H](C)[C@H](NC(=O)[C@H](Cc1ccc(O)cc1)NC(=O)[C@@H](NC(=O)[C@@H]1CCCN1C(=O)[C@H](CCCNC(=N)N)NC(=O)[C@H](CC(N)=O)NC(=O)[C@H](CC(N)=O)NC(=O)[C@H](CCCN)NC(C)=O)C(C)C)C(=O)N1CCC[C@H]1C(=O)N[C@@H](CCC(N)=O)C(=O)N1CCC[C@H]1C(=O)N[C@@H](CCCNC(=N)N)C(=O)N1CCC[C@H]1C(=O)N1CCC[C@H]1C(=O)N[C@@H](Cc1c[nH]cn1)C(=O)N1CCC[C@H]1C(=O)N[C@@H](CCCNC(=N)N)C(=O)NC1(C(N)=O)CCCCC1 [compound 75] (Ac-[Orn]NNRPVYIPQPRPPHPR[Ac6c]-NH2) | >125 | 7.81 (≈ 3.52 µM) |
| CC[C@H](C)[C@H](NC(=O)[C@H](Cc1ccc(O)cc1)NC(=O)[C@@H](NC(=O)[C@@H]1CCCN1C(=O)[C@H](CCCNC(=N)N)NC(=O)[C@H](CC(N)=O)NC(=O)[C@H](CC(N)=O)NC(=O)CN)C(C)C)C(=O)N1CCC[C@H]1C(=O)N[C@@H](CCC(N)=O)C(=O)N1CCC[C@H]1C(=O)N[C@@H](CCCNC(=N)N)C(=O)N1CCC[C@H]1C(=O)N1CCC[C@H]1C(=O)N[C@@H](Cc1c[nH]cn1)C(=O)N1CCC[C@H]1C(=O)N[C@@H](CCCNC(=N)N)C(=O)N[C@@H](CC1CCCCC1)C(N)=O [compound 76] (H-GNNRPVYIPQPRPPHPR[Cha]-NH2) | 62.5 (≈ 29.1 µM) | 15.63 (≈ 7.28 µM) |
| CC[C@H](C)[C@H](NC(=O)[C@H](Cc1ccc(O)cc1)NC(=O)[C@@H](NC(=O)[C@@H]1CCCN1C(=O)[C@H](CCCNC(=N)N)NC(=O)[C@H](CC(N)=O)NC(=O)[C@H](CC(N)=O)NC(=O)CN)C(C)C)C(=O)N1CCC[C@H]1C(=O)N[C@@H](CCC(N)=O)C(=O)N1CCC[C@H]1C(=O)N[C@@H](CCCNC(=N)N)C(=O)N1CCC[C@H]1C(=O)N1CCC[C@H]1C(=O)N[C@@H](Cc1c[nH]cn1)C(=O)N1CCC[C@H]1C(=O)N[C@@H](CCCNC(=N)N)C(=O)N[C@H](CC(C)C)C(N)=O [compound 77] (H-GNNRPVYIPQPRPPHPR[dL]-NH2) | >125 | 31.25 (≈ 14.8 µM) |
| CC[C@H](C)[C@H](NC(=O)[C@H](Cc1ccc(O)cc1)NC(=O)[C@@H](NC(=O)[C@@H]1CCCN1C(=O)[C@H](CCCNC(=N)N)NC(=O)[C@H](CC(N)=O)NC(=O)[C@H](CC(N)=O)NC(=O)CN)C(C)C)C(=O)N1CCC[C@H]1C(=O)N[C@@H](CCC(N)=O)C(=O)N1CCC[C@H]1C(=O)N[C@@H](CCCNC(=N)N)C(=O)N1CCC[C@H]1C(=O)N1CCC[C@H]1C(=O)N[C@@H](Cc1c[nH]cn1)C(=O)N1CCC[C@H]1C(=O)N[C@@H](CCCNC(=N)N)C(=O)N[C@H](C(N)=O)C(C)(C)C [compound 78] (H-GNNRPVYIPQPRPPHPR[Tle]-NH2) |  | 31.25 (≈ 14.8 µM) |
| CC[C@H](C)[C@H](NC(=O)[C@H](Cc1ccc(O)cc1)NC(=O)[C@@H](NC(=O)[C@@H]1CCCN1C(=O)[C@H](CCCNC(=N)N)NC(=O)[C@H](CC(N)=O)NC(=O)[C@H](CC(N)=O)NC(=O)CN)C(C)C)C(=O)N1CCC[C@H]1C(=O)N[C@@H](CCC(N)=O)C(=O)N1CCC[C@H]1C(=O)N[C@@H](CCCNC(=N)N)C(=O)N1CCC[C@H]1C(=O)N1CCC[C@H]1C(=O)N[C@@H](Cc1c[nH]cn1)C(=O)N1CCC[C@H]1C(=O)N[C@@H](CCCNC(=N)N)C(=O)NCCC(N)=O [compound 79] (H-GNNRPVYIPQPRPPHPR[βAla]-NH2) | >125 | 62.5 (≈ 30.3 µM) |
| CC[C@H](C)[C@H](NC(=O)[C@H](Cc1ccc(O)cc1)NC(=O)[C@@H](NC(=O)[C@@H]1CCCN1C(=O)[C@H](CCCNC(=N)N)NC(=O)[C@H](CC(N)=O)NC(=O)[C@H](CC(N)=O)NC(=O)CN)C(C)C)C(=O)N1CCC[C@H]1C(=O)N[C@@H](CCC(N)=O)C(=O)N1CCC[C@H]1C(=O)N[C@@H](CCCNC(=N)N)C(=O)N1CCC[C@H]1C(=O)N1CCC[C@H]1C(=O)N[C@@H](Cc1c[nH]cn1)C(=O)N1CCC[C@H]1C(=O)N[C@@H](CCCNC(=N)N)C(=O)NC1(C(N)=O)CCCCC1 [compound 80] (H-GNNRPVYIPQPRPPHPR[Ac6c]-NH2) | >125 | 15.63 (≈ 7.37 µM) |
| CC[C@H](C)[C@H](NC(=O)[C@H](CCCNC(=N)N)NC(=O)[C@@H]1CCCN1C(=O)[C@H](Cc1c[nH]cn1)NC(=O)[C@@H]1CCCN1C(=O)[C@@H]1CCCN1C(=O)[C@H](CCCNC(=N)N)NC(=O)[C@@H]1C[C@@H](O)CN1C(=O)[C@H](CCCNC(=N)N)NC(=O)[C@@H]1CCCN1C(=O)[C@@H](NC(=O)[C@H](Cc1ccc(O)cc1)NC(=O)[C@@H](NC(=O)[C@@H]1CCCN1C(=O)[C@H](CCCNC(=N)N)NC(=O)[C@H](CC(N)=O)NC(=O)[C@H](CC(N)=O)NC(=O)CN)C(C)C)[C@@H](C)CC)C(N)=O [compound 90] (H-GNNRPVYIPR[Hyp]RPPHPRI-NH2) |  | 7.81 (≈ 3.63 µM) |
| CC[C@H](C)[C@H](NC(=O)[C@H](Cc1ccc(O)cc1)NC(=O)[C@@H](NC(=O)[C@@H]1CCCN1C(=O)[C@H](CCCNC(=N)N)NC(=O)[C@H](CC(N)=O)NC(=O)[C@H](CC(N)=O)NC(=O)[C@H](CCCN)N=C(N(C)C)N(C)C)C(C)C)C(=O)N1CCC[C@H]1C(=O)N[C@@H](CCCNC(=N)N)C(=O)N1CCC[C@H]1C(=O)N[C@@H](CCCNC(=N)N)C(=O)N1CCC[C@H]1C(=O)N1CCC[C@H]1C(=O)N[C@@H](Cc1c[nH]cn1)C(=O)N1CCC[C@H]1C(=O)N[C@@H](CCCNC(N)=O)C(=O)N[C@@H](CC(C)C)C(N)=O [compound 151] ({Orn(α-tetramethylguanidino)}-NNRPVYIPRPRPPHP[Cit]L-NH2; N-terminus and C-terminus assumed) |  | 64 (≈ 27.9 µM) |

Reference: patent US20150315241A1, “Antibiotic Peptides” (priority 2007, published 2015)
